Assay results reported in patent US8173695B2, “Kappa selective opioid receptor antagonist” (Eli Lilly and Company, priority 2008, dated 2012).
Several values for one entry are separate records, joined by “and”; a condition that tells them apart may be missing. Equal values may be shown once.

Experiments:
[1] = tested on: Male Fischer F-344 rats; assay: Stress-induced hyperthermia (in rat); format: in vivo; settings: for stress-induced hyperthermia (T2−T1): in °C
[2] = tested on: Male NIH-Swiss mice; assay: Mouse forced swim test; format: in vivo; settings: for immobility in mouse forced swim test, Mean: 30 min
Source text: This test evaluates the effect of test compound on mice mobility as a measure of antidepressant effect. The less immobility compared to vehicle, the more pronounced the antidepressant-like effect.
Male, NIH-Swiss mice (25-30 g) (Harlan Sprague-Dawley, Indianapolis, Ind., USA) are housed in a vivarium for at least one week prior to use with water and rodent chow freely available during this acclimation period. Animals are removed from the vivarium to the testing area in their home cages and allowed to adapt to the new environment for at least one hour before testing.
Mice are placed in clear plastic cylinders (diameter: 10 cm; height: 25 cm) filled with 6 cm of water (22-25° C.) for six minutes. The duration of immobility during the last four minutes of the six minutes test period is scored. A mouse is recorded as immobile when floating motionless or making only those movements necessary to keep its head above water.
The test compound is administered p.o. 1 hour prior to testing at 1.0 mg/kg, 3.0 mg/kg and 10.0 mg/kg, n of 8 per group in a vehicle of 5 ml of sterile water and 30 ml of diluted (10×) lactic acid. Imipramine is evaluated as a positive control, 15 mg/kg: p, 30 min. prior to testing n of 4.
A second study is carried out evaluating 1 and 3 mg/kg doses of the compound of Example 1A alone and in combination with 5 mg/kg of imipramine. Imipramine alone is evaluated at 5 and 15 mg/kg doses and a vehicle control is included in the study. For the combination studies, the compound of Example 1A is administered p.o. 30 minutes prior to administration of imipramine i.p. and the test initiated 30 minutes following imipramine administration. An n of 8 per group is evaluated for all groups. For the evaluations of the compound of Example 1A alone, testing is initiated 60 minutes following administration and testing of imipramine only treated animals is initiated 30 minutes following administration.

[3] = tested on: Sprague Dawley rats; assay: Prepulse inhibition, reversal of morphine induced disruption of PPI; format: in vivo, rat; settings: vehicle/20 mg/kg morphine sc; 20 mg/kg
[4] = Study 1, positive control 10 mg/kg

CNC1=Nc2ccc(Cl)cc2C(c2ccccc2)=[N+]([O-])C1 [CDP, chlordiazepoxide, reference compound]
stress-induced hyperthermia (T2−T1) ([1]; Study 2, 1 mg/kg CDP alone, po): 0.75±0.06

CN(C)CCCN1c2ccccc2CCc2ccccc21 [Imipramine, imipramine, reference compound]
immobility in mouse forced swim test, Mean ([2]; Imipramine 5 mg/kg i.p.): 161.94 s
immobility in mouse forced swim test, Mean ([2]; Imipramine 15 mg/kg i.p.): 61.70 s
antidepressant effect, in words ([2]; imipramine 15 mg/kg, over vehicle control, p<0.05): statistically significant antidepressant effect

Cc1nc(C#Cc2cccnc2)cs1 [MTEP, 3-[(2-methyl-1,3-thiazol-4-yl)ethynyl]pyridine, reference compound]
baseline body temperatures [1, 4]: without affecting
reduction in stress-induced hyperthermia, in words ([1]; Study 1, positive control 10 mg/kg, p<0.05): significantly reduces
stress-induced hyperthermia (T2−T1) [1, 4]: 0.42±0.09

CN1CC[C@]23c4c5ccc(O)c4O[C@H]2[C@@H](O)C=C[C@H]3[C@H]1C5 [morphine, reference compound]
% Inhibition (PPI), individual rats [3]: 26.99% and −12.64% and 34.65% and 32.59% and 5.49% and 49.11% and 53.95% and 44.81% and 35.01% and −9.49% and 51.85% and 24.04% and 4.72% and 50.03%
